Source: ChEMBL document CHEMBL4680273, “Teixobactin: A Paving Stone toward a New Class of Antibiotics?” (2020)
≈ marks a conversion by molar mass, not a printed value.

Legend:
Format in all cases: functional
Bacillus subtilis [1] = assay: Antibacterial activity against Bacillus subtilis ATCC 6051 incubated for 16 hrs by UV/Visible absorbance method
Staphylococcus aureus [2] = assay: Antibacterial activity against Staphylococcus aureus ATCC 29213
Staphylococcus aureus [3] = assay: Antibacterial activity against Staphylococcus aureus SH1000 incubated for 24 hrs by CLSI-broth microdilution method; conditions: Staphylococcus aureus, SH1000, read-out: MIC
Staphylococcus aureus [4] = assay: Antibacterial activity against Staphylococcus aureus ATCC 29213 incubated for 24 hrs by CLSI-based broth microdilution method
Staphylococcus aureus [5] = assay: Antibacterial activity against Staphylococcus aureus ATCC 29213 incubated for 16 hrs by UV/Visible absorbance method
Staphylococcus aureus [6] = assay: Antibacterial activity against methicillin resistant Staphylococcus aureus ATCC 33591 incubated for 24 hrs
Bacillus subtilis [7] = assay: Antibacterial activity against Bacillus subtilis 168 incubated for 24 hrs
Staphylococcus aureus [8] = assay: Antibacterial activity against methicillin resistant Staphylococcus aureus

Compound `CC[C@H](C)[C@H](NC(=O)[C@@H](Cc1ccccc1)NC)C(=O)N[C@@H](CO)C(=O)N[C@H](CCC(N)=O)C(=O)N[C@@H](C(=O)N[C@H](C(=O)N[C@@H](CO)C(=O)N[C@H]1C(=O)N[C@@H](CCCCN)C(=O)N[C@@H](CCCNC(=N)N)C(=O)N[C@@H]([C@@H](C)CC)C(=O)O[C@H]1C)[C@@H](C)CC)[C@@H](C)CC` has an MIC (Bacillus subtilis [1]) of 1 µg/mL (≈ 0.768 µM) and an MIC (Staphylococcus aureus [2]) of 6 µg/mL (≈ 4.61 µM).

In the case of `CCC1NC(=O)[C@H](CCCNC(=N)N)NC(=O)[C@H](C)NC(=O)[C@H](NC(=O)[C@H](CO)NC(=O)[C@@H](NC(=O)[C@H](NC(=O)[C@@H](CCC(N)=O)NC(=O)[C@H](CO)NC(=O)[C@@H](NC(=O)[C@@H](Cc2ccccc2)NC)[C@@H](C)CC)[C@@H](C)CC)[C@@H](C)CC)[C@H](C)OC1=O` (stereo partly drawn), the MIC (Staphylococcus aureus [3]) is reported as 16 µg/mL (≈ 13.2 µM).

For `CC[C@H](C)[C@H](NC(=O)[C@@H](Cc1ccccc1)NC)C(=O)N[C@@H](CO)C(=O)N[C@H](CCC(N)=O)C(=O)N[C@@H](C(=O)N[C@H](C(=O)N[C@@H](CO)C(=O)N[C@H]1C(=O)N[C@@H](C)C(=O)N[C@@H](CCCNC(=N)N)C(=O)NC(CCCC(F)(F)F)C(=O)O[C@H]1C)[C@@H](C)CC)[C@@H](C)CC` (stereo partly drawn), the MIC (Staphylococcus aureus [3]) was 32 µg/mL (≈ 24.6 µM).

`CC[C@H](C)[C@H](NC(=O)[C@H](Cc1ccccc1)NC)C(=O)N[C@@H](CO)C(=O)N[C@H](CCC(N)=O)C(=O)N[C@@H](C(=O)N[C@H](C(=O)N[C@@H](CO)C(=O)N[C@H]1C(=O)N[C@@H](C)C(=O)N[C@@H](CCCNC(=N)N)C(=O)N[C@@H]([C@@H](C)CC)C(=O)O[C@H]1C)[C@@H](C)CC)[C@@H](C)CC` was tested, and the MIC (Staphylococcus aureus [4]) was 2 µg/mL (≈ 1.61 µM).

Compound `CC[C@H](C)[C@H](NC(=O)[C@@H](Cc1ccccc1)NC)C(=O)N[C@@H](CO)C(=O)N[C@H](C)C(=O)N[C@@H](C(=O)N[C@H](C(=O)N[C@@H](C)C(=O)N[C@H]1C(=O)N[C@@H](C)C(=O)N[C@@H](CCCCN)C(=O)N[C@@H]([C@@H](C)CC)C(=O)O[C@H]1C)[C@@H](C)CC)[C@@H](C)CC` has an MIC (Bacillus subtilis [1]) of 4 µg/mL (≈ 3.5 µM) and an MIC (Staphylococcus aureus [5]) of 1 µg/mL (≈ 0.875 µM).

Work on `CCCCC1NC(=O)[C@H](CCCN/C(=N\C)NC)NC(=O)[C@H](C)NC(=O)[C@H](NC(=O)[C@H](CO)NC(=O)[C@@H](NC(=O)[C@H](NC(=O)[C@@H](CCC(N)=O)NC(=O)[C@H](CO)NC(=O)[C@@H](NC(=O)[C@@H](Cc2ccccc2)NC)[C@@H](C)CC)[C@@H](C)CC)[C@@H](C)CC)[C@H](C)OC1=O` (stereo in doubt; 128) yielded an MIC (Staphylococcus aureus [3]) of 16 µg/mL (≈ 12.6 µM).

For `CC[C@H](C)[C@H](NC(=O)[C@@H](Cc1ccccc1)NC)C(=O)N[C@@H](CO)C(=O)N[C@H](CCC(N)=O)C(=O)N[C@@H](C(=O)N[C@H](C(=O)N[C@@H](CO)C(=O)N[C@H]1C(=O)N[C@@H](C)C(=O)N[C@@H](CCNC(=N)N)C(=O)N[C@@H]([C@@H](C)CC)C(=O)O[C@H]1C)[C@@H](C)CC)[C@@H](C)CC`, the MIC (Staphylococcus aureus [6]) was 1 µg/mL (≈ 0.813 µM) and the MIC (Bacillus subtilis [7]) was 0.5 µg/mL (≈ 0.406 µM).

With `CC[C@H](C)[C@H](NC(=O)[C@H](NC(=O)[C@@H](CCC(N)=O)NC(=O)[C@H](CO)NC(=O)[C@H](C)NC(=O)[C@@H](Cc1ccccc1)NC)[C@@H](C)CC)C(=O)N[C@@H](CO)C(=O)N[C@H]1C(=O)N[C@@H](C)C(=O)N[C@@H](CCCCN)C(=O)N[C@@H]([C@@H](C)CC)C(=O)O[C@H]1C` the MIC (Bacillus subtilis [1]) was 32 µg/mL (≈ 27.2 µM).

`CC[C@H](C)[C@H](NC(=O)[C@@H](C)NC(=O)[C@@H](CCC(N)=O)NC(=O)[C@H](CO)NC(=O)[C@@H](NC(=O)[C@@H](Cc1ccccc1)NC)[C@@H](C)CC)C(=O)N[C@@H](CO)C(=O)N[C@H]1C(=O)N[C@@H](C)C(=O)N[C@@H](CCCCN)C(=O)N[C@@H]([C@@H](C)CC)C(=O)O[C@H]1C` gave an MIC (Bacillus subtilis [1]) of 16 µg/mL (≈ 13.6 µM).

`CC[C@H](C)[C@H](NC(=O)[C@@H](Cc1ccccc1)NC)C(=O)N[C@@H](CO)C(=O)N[C@H](CCC(N)=O)C(=O)N[C@@H](C(=O)N[C@H](C(=O)N[C@@H](CO)C(=O)N[C@H]1C(=O)N[C@@H](C)C(=O)N[C@@H](CNC(=N)N)C(=O)N[C@@H]([C@@H](C)CC)C(=O)O[C@H]1C)[C@@H](C)CC)[C@@H](C)CC` showed an MIC (Staphylococcus aureus [6]) of 4 µg/mL (≈ 3.29 µM) and an MIC (Bacillus subtilis [7]) of 1 µg/mL (≈ 0.822 µM).

`CC[C@H](C)[C@H](NC(=O)[C@@H](Cc1ccccc1)N(C)C)C(=O)N[C@@H](CO)C(=O)N[C@H](CCC(N)=O)C(=O)N[C@@H](C(=O)N[C@H](C(=O)N[C@@H](CO)C(=O)N[C@H]1C(=O)N[C@@H](C)C(=O)N[C@@H](CCCNC(=N)N)C(=O)N[C@@H]([C@@H](C)CC)C(=O)O[C@H]1C)[C@@H](C)CC)[C@@H](C)CC` gave an MIC (Staphylococcus aureus [4]) of 16 µg/mL (≈ 12.7 µM).

In the case of `CC[C@H](C)[C@H](NC(=O)[C@@H](Cc1ccccc1)NC)C(=O)N[C@@H](CO)C(=O)N[C@H](CCC(N)=O)C(=O)N[C@@H](C(=O)N[C@H](C(=O)N[C@@H](CO)C(=O)N[C@H]1C(=O)N[C@@H](C)C(=O)N[C@@H](CCCNC(=N)N)C(=O)N[C@@H](C)C(=O)O[C@H]1C)[C@@H](C)CC)[C@@H](C)CC`, the MIC (Staphylococcus aureus [3]) is reported as ≥ 32 µg/mL.

In the case of `CC[C@H](C)[C@H](NC(=O)[C@@H](Cc1ccccc1)NC)C(=O)N[C@@H](C)C(=O)N[C@H](CCC(N)=O)C(=O)N[C@@H](C(=O)N[C@H](C(=O)N[C@@H](CO)C(=O)N[C@H]1C(=O)N[C@@H](C)C(=O)N[C@@H](CCCCN)C(=O)N[C@@H]([C@@H](C)CC)C(=O)O[C@H]1C)[C@@H](C)CC)[C@@H](C)CC`, the MIC (Staphylococcus aureus [2]) is reported as 0.5 µg/mL (≈ 0.416 µM) and the MIC (Staphylococcus aureus [8]) is reported as 1 µg/mL (≈ 0.833 µM).
